According to a melting point compilation (Tetko et al.; mined from patent text by program, amines drawn as free bases though some values may be those of a salt):

| SMILES | melting point [°C] |
| --- | --- |
| O=C1CSC(c2cccc(Cl)c2)c2cc(C(=O)c3ccc(Cl)cc3)ccc2N1 (configuration not stated) | 222 |
| C=C1CN(c2ccccc2)C1=O | 57 to 58 |
| N[C@@H](C/C(=C\C1CCCC1)C(=O)O)C(=O)O | 173 to 175 |
| O=C1NCCc2c(-c3ccc(C(F)(F)F)cc3)[nH]c3cccc1c23 | 208 to 209 |
| COc1cc(-c2nc3ccc(OCCCN(C)C)cc3n2Cc2ccccc2Br)cc(OC)c1OC | 141 |
| O=[N+]([O-])c1c(C(F)(F)F)cc(OCc2ccccc2)cc1C(F)(F)F | 141 to 143 |
| CC(C)(O)Cn1c(COc2ccccc2)nc2c(N)nc3ccccc3c21 | 200 to 201 |
| ON=Cc1cc(-c2ncc(C(F)(F)F)cc2Cl)ccc1Cl | 173 to 174 |
| CCn1c(=O)c2[nH]c(/C=C/c3cccc(F)c3)nc2n(CC)c1=O | > 270 |
| CSc1nn(C(C)(C)C)c(=O)c(Cl)c1C1CCC(C(C)(C)C)CC1 (configuration not stated) | 96 |
| Clc1cc(CCc2ccccn2)c2oc(-c3cn[nH]c3)nc2c1 | 204 to 208 |
| CCCCCCCCCCCCCCCCC(OC)C(=O)OC (configuration not stated) | 33 to 36 |
| O=C(NCCO)c1cccc(-c2ccc3ccn(-c4ccc(Cl)cc4Cl)c3c2)c1 | 163 to 164 |
| Cc1ccc2nc(N3CC[C@H](NCCO)C3)ccc2c1NC(=O)CC1CCCCC1 | 204 to 207 |
| O=c1c2ccccc2c(Br)c(Br)c2ccc(Br)cc12 | 173 to 175 |
| CC(C)c1c(-c2cc(C(F)(F)F)cc(C(F)(F)F)c2)ccc2nc(N)nc(N)c12 | 212 to 214 |
| ON=C1CCN(C2c3ccccc3COc3ccc(Br)cc32)CC1 (configuration not stated) | 223 to 225 |
| O=C(CP(=O)(O)O)NC1CCCCC1 | 180 to 183 |
| COc1ccc2oc3cccc(NCCN4CCCC4)c3c(=O)c2c1 | 92 to 93 |
| CN(C)Cc1c(-c2ccccn2)[nH]c2ncnc(Nc3cccc(Cl)c3)c12 | 247 to 251 |
| Oc1ccc(-c2cc3cc(O)ccc3o2)cc1 | 218 to 222 |
| COc1ccc(COCc2nccn2CCO)cc1 | 96 to 98 |
| CCC(CC)Nc1cc(-c2c(-c3cccc(C)c3)nc3cccnn23)ccn1 | 155 to 156 |

| SMILES | melting point [°C] |
| --- | --- |
| Clc1nc2c(c(N[C@@H]3CCC[C@H]3OCc3ccccc3)n1)SCC2 | 157 to 158 |
| CC(C)(C)N1CC=C(c2c[nH]c(-c3ccc(F)cc3)c2-c2ccncc2)CC1 | 242 to 244 |
| N#Cc1c(N2CCCCC2)cc(-c2cccc3ccccc23)c2c1Cc1ccccc1-2 | 148 to 149 |
| Cc1ccnc2c1C(=O)CC(c1cc(F)ccc1F)C2 (configuration not stated) | 75 to 76 |
| CN(C)c1cccc(-n2c(=O)c(CCCc3ccncc3)cc3cccnc32)c1 | 124 to 127 |
| C#CCOc1cc(Oc2ccc(Cl)cc2)ncn1 | 100 |
| CCOc1cc(C=[N+]([O-])C2CCCCC2)ccc1OC | 114 |
| COc1cc(C#Cc2ccccc2)c(OC)cc1C#Cc1ccccc1 | 172 to 174 |
| COc1cc(C(O)CN)cc(OC)c1OC (configuration not stated) | 141 |
| O=C(Nc1ccc(N2CCCC2)nc1)c1cc2nc(C(F)(F)F)ccc2n1Cc1cccc(F)c1 | 219 to 220 |
| COc1ccc([N+](=O)[O-])c(C=C[N+](=O)[O-])c1OCc1ccccc1 | 118 to 119 |
| CC(C)(O)C1(c2onc(-c3ccc(O)cc3)c2-c2ccccc2)CC1 | 212 to 213 |
| O=Cc1cccc2oc3c(c12)CCCC3 | 55 to 57 |
| O=c1c2cccc(Cl)c2nc2n1CCCO2 | 207 to 208 |
| CC(C)CC(SCc1ccccc1)c1c(O)cc(-c2ccccc2)oc1=O (configuration not stated) | 153 to 155 |
| [N-]=[N+]=NCCCc1ccc(C(=O)O)s1 | 71 to 72 |
| O=[N+]([O-])c1ccc(-c2ncnn2-c2ccccc2F)cc1 | 143 to 145 |
| CCOC(=O)Cn1c(C)cc2c1CCCC2=O | 101 to 104 |
| NC1=NC(c2ccc(OC(F)(F)F)cc2)(c2ccc(F)c(-c3cncnc3)c2)C(=O)N1C(F)F (configuration not stated) | 82 to 94 |
| O=c1[nH]c2c(c3nc(-c4ccccc4Cl)nn13)CN(Cc1ccccc1)CC2 | 295 to 296 |
| O=c1cc(-c2ccncc2)nc2n1CCCN2CCCc1c[nH]c2ccccc12 | 230 to 232 |
| O=C1OC2(CCN(C(=O)Nc3ncc(-c4ccccc4)cn3)CC2)c2c(F)cccc21 | 244 to 246 |

Now from value to compound:

| melting point [°C] | SMILES |
| --- | --- |
| 136 to 138 | C=Cc1cc(-c2ccc(S(C)(=O)=O)cc2)n(CC2CCCCC2)n1 |
| 184 to 186 | CC(C)(C)OC(=O)Nc1ccc(OC2CNC2)cc1 |
| 219 to 221 | O=C(O)c1cccc2c1CCc1ccc(O)cc1S2 |
| 270 to 275 | COc1ccc(C(=O)NC(=O)Nc2ccc3c(c2)NC(=O)/C3=C\c2ccncc2)cc1 |
| 112 to 114 | COC=C(C(=O)OC)c1ccccc1CON=C(C)C(=NOC)c1ccc(CCc2ccc(Cl)cc2Cl)cc1 |
| 42 to 44 | CCCCCCCCCCCCC1=C(OC(=O)CC)C(=O)c2ccccc2C1=O |
| > 270 | N#Cc1cc2ccccc2n1-c1ccc(CO)cc1 |
| 152 to 155 | CC(C)(C)c1cc(C=Cc2ccccc2O)on1 |
| 117 to 119 | Cc1ccccc1[C@@H](CCC(=O)O)Oc1cc(OCc2cccnc2)ccc1[N+](=O)[O-] |
| 257 to 260 | Cc1ccccc1C(=O)Nc1ccc(C(=O)N2CCc3cnoc3-c3ccccc32)cc1 |
| 279 | COc1cccc(CNC(=O)c2nc3scc(CC(=O)Nc4ccc(C(=O)O)cc4)c3c(=O)[nH]2)c1 |
| 122 to 124 | CCOC(=O)C1=Cc2cc(C)cc(Br)c2NC1C(F)(F)F (configuration not stated) |
| 267 | CCCc1c2oc(C(=O)O)cc(=O)c2cc2c(=O)cc(N(C(C)=O)C(C)=O)oc12 |
| 194 to 196 | Cn1cc(S(=O)(=O)Cl)c(=O)c2ccc(F)cc21 |
| 144 | CC(C)(C)C(=O)C(C#N)C(=O)c1ccc(S(C)(=O)=O)cc1Cl (configuration not stated) |
| 169 to 171 | CC(C)c1cc(C(=O)Nc2ccc(C(=O)O)o2)oc1C(C)C |
| 71 to 73 | CCOC(=O)c1c(-c2cccc(Cl)c2)noc1C |
| 275 | NS(=O)(=O)c1cccc(NC(=O)c2cnn3c(C(F)(F)F)cc(-c4ccc(F)c(F)c4)nc23)c1 |
| 163 to 168 | CCOCc1nc2c(N)nc3cc(O)ccc3c2n1CC(C)(C)NC(=O)NC(C)C |
| 171 to 175 | C=C(c1ccc(Cl)cc1)c1ccc(NC(=O)c2cc(I)cc(I)c2O)cc1Cl |
| 124 to 126 | CCCCC(=O)Nc1c(C(=O)c2cccc(C)c2)[nH]c2cc(Cl)ccc12 |
| 128 to 130 | COc1cc(I)c(C(=O)Oc2ccccc2COC(=O)c2ccc3c(c2I)OCO3)cc1OC |
| 188 to 189 | COc1cc(NS(=O)(=O)c2ccc3c(ccn3C)c2)cc(OC)c1OC |
| 176 to 177 | CC(C)(C)c1ccc(CCC=O)cc1NC(=O)CC1c2ccccc2Oc2ccccc21 |
| 95 | CC(C)(C)c1ccc(S(=O)(=O)/C=C/c2ccccc2)cc1 |
| 245 to 258 | NC(=O)c1ccc(-c2ccc(Cl)cc2)nc1 |
| 256 to 257 | CC(C)Cc1nc2ccc(O)cc2c(-c2ccccc2F)c1C#N |
